Measured values reported in ChEMBL document CHEMBL5257032, “Therapeutic potential of coumarins as antiviral agents” (Eur J Med Chem, 2016).
Converted amounts (≈) assume the structure as drawn. “And” between values parts separate entries of the source, which are not always exact repeats. Equal values may be shown once. Each block holds one compound with its values, some of them ahead of it.

Assays:
[1] = biological target: Human immunodeficiency virus type 1 protease (Human immunodeficiency virus 1) (UniProt Q72874); assay: (§1) Inhibition of HIV-1 protease
[2] = biological target: T1, Human immunodeficiency virus type 1 protease (Human immunodeficiency virus 1, UniProt Q72874); assay: as §1
[3] = Inhibition of Hepatitis C virus NS5B polymerase; parameters: species or system Hepacivirus hominis
[4] = biological target: T1, Human immunodeficiency virus type 1 protease; assay: Binding affinity to HIV-1 protease assessed as inhibition constant
[5] = Binding affinity to HIV protease assessed as inhibition constant; parameters: species or system Human immunodeficiency virus
[6] = system: Human immunodeficiency virus; assay: Antiviral activity against HIV; format: functional, organism-based; conditions: Human immunodeficiency virus 1
[7] = biological target: Human immunodeficiency virus type 1 reverse transcriptase (Human immunodeficiency virus 1, UniProt Q72547); assay: Inhibition of HIV1 reverse transcriptase
[8] = system: Human immunodeficiency virus 1; assay: Antiviral activity against HIV-1 infected in CEM-SS cells; format: functional, organism-based; conditions: Human immunodeficiency virus 1, CEM-SS
[9] = system: Human immunodeficiency virus; assay: Antiviral activity against HIV infected in human H9 cells; format: functional, organism-based; conditions: Human immunodeficiency virus 1, H9; read-out: EC50
[10] = system: Human immunodeficiency virus 1; assay: Antiviral activity against HIV-1 RTMDR1 infected in human MT4 cells; format: functional, organism-based; conditions: Human immunodeficiency virus 1, RTMDR1, MT4
[11] = system: Human immunodeficiency virus 1; assay: Antiviral activity against HIV-1; format: functional, organism-based
[12] = system: Human immunodeficiency virus 1; assay: Antiviral activity against HIV-1 infected in human Jurkat cells; format: functional, organism-based; conditions: Human immunodeficiency virus 1, Jurkat
[13] = system: Human immunodeficiency virus 1; assay: Antiviral activity against HIV-1 infected in human H9 cells; format: functional, organism-based; conditions: Human immunodeficiency virus 1, H9; read-out: EC50
[14] = Inhibition of HIV protease; parameters: species or system Human immunodeficiency virus

Structure (SMILES): O=c1oc2ccccc2c(O)c1C(c1ccc2c(c1)OCO2)c1c(O)c2ccccc2oc1=O
ID50 [1]: 30000 nM

Structure (SMILES): O=c1oc2ccccc2c(O)c1C(c1ccc(C(c2c(O)c3ccccc3oc2=O)c2c(O)c3ccccc3oc2=O)cc1)c1c(O)c2ccccc2oc1=O
IC50 [2]: 11500 nM
ID50 [1]: 1700 nM

IC50 [3]: 174000 nM
Structure (SMILES): COc1cc2c(cc1O)oc1c3ccc(O)cc3oc(=O)c21

Structure (SMILES): O=c1oc2ccccc2c(O)c1C(c1ccccc1)c1c(O)c2ccccc2oc1=O
IC50 [2]: 43000 nM

Ki [4]: 15 nM
Structure (SMILES): CCC(Cc1ccccc1)c1cc(O)c(C(c2cccc(N[C@@H](C)C(=O)OC(C)(C)C)c2)C2CC2)c(=O)o1 (stereo partly specified)

Ki [5]: 700 nM
Structure (SMILES): CCC(c1ccccc1)c1c(O)c2c(oc1=O)CCC2 (stereo unspecified)

Structure (SMILES): CC(C)(C)OC(=O)NCCNc1cccc(C(c2c(O)c3c(oc2=O)CCCCCC3)C2CC2)c1 (stereo unspecified)
IC50 [6]: 1000 nM
Ki [5]: 0.6 nM and 4 nM

IC50 [7]: 12300 nM
Structure (SMILES): Cc1cc(=O)oc2c3c(c4c(c12)OC(C)(C)C=C4)O[C@H](C)[C@@H](C)[C@@H]3O [(+)-CORDATOLIDE A]

Structure (SMILES): O=c1oc2cc(O)ccc2c(O)c1C(c1ccc2ccccc2c1)c1c(O)c2ccc(O)cc2oc1=O
IC50 [2]: 4200 nM

Structure (SMILES): CCC(c1cccc(NC(=O)CCn2ccc3ccccc32)c1)c1c(O)c2ccccc2oc1=O (stereo unspecified)
Ki [5]: 110 nM

Structure (SMILES): O=c1oc(-c2ccccc2)cc(O)c1C(SC1CCCC1)C1CCCC1 (stereo unspecified)
IC50 [2]: 225 nM

Structure (SMILES): CCCc1cc(=O)oc2c3c(c4c(c12)OC(C)(C)C=C4)O[C@H](C)[C@@H](C)C3=O
IC50 [7]: 19000 nM
EC50 [8]: 1200 nM

Structure (SMILES): CC(C)(O)C(O)COc1c2ccoc2cc2oc(=O)ccc12 (stereo unspecified)
EC50 [9]: 10 µg/mL (≈ 32.9 µM)

Structure (SMILES): CCc1cc(=O)c2ccc3c(c2o1)[C@@H](OC(=O)[C@@]12CC[C@](C)(C(=O)O1)C2(C)C)[C@@H](OC(=O)C12CCC(C)(C(=O)O1)C2(C)C)C(C)(C)O3
EC50 [10]: 60 nM

Structure (SMILES): O=c1oc2ccccc2c(O)c1Sc1c(O)c2ccccc2oc1=O
ID50 [1]: 21000 nM

Structure (SMILES): CC(C)(Cl)C(O)COc1c2occc2cc2ccc(=O)oc12 (stereo unspecified)
EC50 [9]: 2.25 µg/mL (≈ 6.97 µM)

Structure (SMILES): CC(C)(O)C(O)COc1c2occc2cc2ccc(=O)oc12 (stereo unspecified)
EC50 [9]: 0.115 µg/mL (≈ 0.378 µM)

Ki [5]: 3 nM
Structure (SMILES): CC(C)(C)OC(=O)NC(Cc1c[nH]cn1)C(=O)Nc1cccc(C(c2c(O)c3c(oc2=O)CCCCCC3)C2CC2)c1 (stereo unspecified)

Structure (SMILES): CCC(Cc1ccccc1)c1cc(O)c(C(CC)c2ccccc2)c(=O)o1 (stereo unspecified)
IC50 [11]: 3000 nM

IC50 [3]: 36100 nM
Structure (SMILES): COc1cc(O)c2c(c1)oc(=O)c1c3cc(O)c(O)cc3oc21 [WEDELOLACTONE]

Structure (SMILES): CC(=O)CC(c1ccccc1)c1c(O)c2ccc(C)c(C)c2oc1=O (stereo unspecified)
IC50 [2]: 1900 nM

IC50 [7]: 19000 nM
Structure (SMILES): Cc1cc(=O)oc2c3c(c4c(c12)OC(C)(C)C=C4)O[C@H](C)[C@@H](C)[C@H]3O

Structure (SMILES): CCC(c1cccc(NC(=O)CNC(=O)OC(C)(C)C)c1)c1c(O)c2ccccc2oc1=O (stereo unspecified)
Ki [5]: 160 nM

Structure (SMILES): CC(C)=CCc1c(O)c(C(=O)C(C)C)c2oc(=O)cc(-c3ccccc3)c2c1O [ISOMESUOL]
IC50 [12]: 2000 nM

Structure (SMILES): COc1ccc2c(O)c(-c3ccccc3)c(=O)oc2c1
IC50 [6]: 23800 nM

Ki [5]: 72 nM
Structure (SMILES): CCNC(=O)Nc1cccc(C(c2c(O)c3c(oc2=O)CCCCCC3)C2CC2)c1 (stereo unspecified)

Structure (SMILES): Cc1cc(=O)oc2c3c(ccc12)OC(C)(C)[C@H](OC(=O)C12CCC(C)(C(=O)O1)C2(C)C)[C@@H]3OC(=O)[C@@]12CC[C@](C)(C(=O)O1)C2(C)C
EC50 [13]: 0.00183 nM

Structure (SMILES): Cc1cc(SC2=C(O)C[C@@](CCc3ccc(N)cc3)(C(C)C)OC2=O)c(C(C)(C)C)cc1CO
EC50 [2]: 200 nM

Structure (SMILES): O=C(O)COc1ccc(-c2cc(O)c(SCCc3ccccc3)c(=O)o2)cc1
IC50 [2]: 160 nM

Structure (SMILES): COc1c2ccoc2cc2oc(=O)ccc12 [BERGAPTEN]
EC50 [9]: 0.354 µg/mL (≈ 1.64 µM)

Structure (SMILES): CCC(c1cccc(NC(=O)CCNC(=O)OC(C)(C)C)c1)c1c(O)c2ccccc2oc1=O (stereo unspecified)
Ki [5]: 280 nM

IC50 [14]: 57000 nM
Ki [5]: 15 nM
Structure (SMILES): O=c1oc2c(c(O)c1C(c1ccccc1)C1CC1)CCCCCC2 (stereo unspecified)

Structure (SMILES): CC(=O)CC(c1ccccc1)c1c(O)c2ccccc2oc1=O (stereo unspecified) [WARFARIN]
IC50 [14]: 30000 nM

Ki [5]: 24 nM
Structure (SMILES): CCCC(=O)Nc1cccc(C(c2c(O)c3c(oc2=O)CCCCCC3)C2CC2)c1 (stereo unspecified)

Structure (SMILES): Cc1cc(=O)oc2c1ccc1oc(C(=O)c3ccccc3)c(-c3ccccc3)c12
EC50 [11]: 1.3 nM

Structure (SMILES): CCCCCCc1cc2c(O)c(C(c3ccccc3)c3c(O)c4cc(CCCCCC)c(O)cc4oc3=O)c(=O)oc2cc1O
ID50 [1]: 320 nM

Structure (SMILES): CCC(c1cccc(NC(=O)CCCNC(=O)OC(C)(C)C)c1)c1c(O)c2ccccc2oc1=O (stereo unspecified)
Ki [5]: 1600 nM
